Results as given in patent publication US20170335402A1, “DOT1L INHIBITORS AND USES THEREOF” (Baylor College of Medicine, priority 2014, published 2017).
“Also recorded” adds a separate entry of the source.

Assays:
Type in all cases: cell-based, human
[1] = system: HL60 cells; assay: Annexin V binding (AVB) flow cytometry apoptosis assay; conditions: 3 μM
Protocol: (§1) Cells were harvested at each re-plating of the cell proliferation assay described above then split for simultaneous analysis of apoptosis, cell cycle, and differentiation. Apoptosis was determined by Annexin V binding (AVB) flow cytometry assay. The harvested cells were re-suspended in 1×AVB buffer, stained with APC-conjugated Annexin V (BD), then analyzed by flow cytometry. For cell cycle analysis, cells were pelleted, washed in PBS with 0.5% bovine serum albumin, then fixed in 70% ice-cold methanol. The fixed cells were then incubated in PBS with 100 μg/mL RNAse (Invitrogen) for 15 minutes in a 37° C. water bath. Propidium iodide (PI) in PBS at a final concentration of 25 μg/mL was then added and the cells were analyzed by flow cytometry. For differentiation, cells were pelleted, and stained with APC-conjugated CD14 then washed and re-suspended in media containing PI to exclude dead cells. All analyses were performed using an LSR II flow cytometer (BD biosciences) and the data were analyzed using FlowJo (TreeStar, V8.8.7).

[2] = system: OCI AML2 cells; assay: Cell cycle analysis by flow cytometry for DNA content (PI); conditions: increased sub-G1, decreased S and G2/M, dose- and time-dependent
Protocol: as §1

[3] = system: OCI AML3 cells; assay: as above; conditions: increased sub-G1, decreased S and G2/M, dose- and time-dependent
Protocol: as §1

[4] = system: DNMT3A mutant cells; assay: HOX gene expression in DNMT3A mutant cells (FIG. 10); conditions: FIG. 10, day 6 and day 10 of treatment
Protocol: (§2) RNA was extracted from OCI AML2 and OCI AML3 cells treated with 3 μM EPZ004777 or DMSO control using RNeasy RNA isolation kit (Qiagen) per manufacturer's protocol. RNA was quantified using Nanodrop instrument and 300-1000 ng (equal quantities for EPZ004777 treated and DMSO controls) of RNA were reverse transcribed using the SuperScript® III First-Strand Synthesis System (Invitrogen). Reverse transcription quantitative PCR was then performed in triplicate using predesigned TaqMan primer and probe sets for HOXA9 (Hs00365956_m1), MEIS1 (Hs01017441_m1), HOXB8 (Hs00256885_m1), HOXB3 (Hs01587922_m1), and GAPDH (Hs02758991_ml) (FAM-MGB; Applied Biosystems) for 30 cycles using an AbiPrism 7900HT (Applied Biosystems). Target gene numbers were normalized to the ribosomal RNA 18s (VIC-MGB; Applied Biosystems) and fold-change determined by the 2^−ΔΔCT equation.

[5] = system: OCI AML2 cells; assay: Quantitative RT PCR of leukemogenic gene expression; conditions: 3 μM
Protocol: as §2

[6] = system: OCI AML3 cells; assay: as above; conditions: 3 μM
Protocol: as §2

[7] = system: H3K79me2 in OCI AML2 cells; assay: Immunoblot analysis of cellular H3K79 methylation
[8] = system: normal CD34+ cells isolated from cord blood; assay: Colony-forming cell assay; conditions: 3 μM
[9] = system: OCI AML2 cells; assay: Annexin V binding (AVB) flow cytometry apoptosis assay
Protocol: (§3) For the Annexin V apoptosis assay, 1×10^6 SYC-522-, EPZ004777- or DMSO-treated cells were washed in PBS, resuspended in Ca/HEPES buffer (10 mM HEPES, pH7.4; 140 mM NaCl; 2.5 mM CaCl2) and incubated with Annexin V-APC (BD Pharmingen, San Jose, Calif.) for 30 min then analyzed by flow cytometry.
as §1

[10] = system: MV411 cells; assay: as above; conditions: MV411; 3 μM, time-dependent beginning at 5-7 days
Protocol: as §3, §1

[11] = system: OCI AML3 cells; assay: as above
Protocol: as §3, §1

[12] = system: H3K79me2 in OCI AML3 cells; assay: Immunoblot analysis of cellular H3K79 methylation
[13] = system: HL60 cells; assay: Cell proliferation and viability assay (trypan blue exclusion); conditions: HL60 (MLL- and DNMT3A-wild-type, negative control); 3 μM, 14 days
Protocol: (§4) Exponentially growing cells were plated, in triplicate, in 24-well plates at a density of 2×10^5/mL in a final volume of 1 mL. For dose dependent assays, cells were incubated in increasing concentrations of SYC522 up to 10 μM or EPZ004777 up to 24 μM or DMSO control. For time-dependent assays, cells were incubated in 3 μM EPZ004777 or DMSO control. Every 2-3 days media and compound was replaced and cells were split back to a density of 2×10^5/mL. At each re-plating viable cells number was determined by trypan blue exclusion. Total cell number is expressed as split-adjusted viable cells per mL.

[14] = system: OCI AML2 cells; assay: Cell differentiation analysis, CD14 flow cytometry; conditions: 3 μM
Protocol: (§5) Cell differentiation analysis was performed by staining with fluorescently labeled marker for cell differentiation, CD14 followed by flow cytometry. Propidium iodide was added prior to flow cytometry analysis to exclude dead cells.
as §1

[15] = system: OCI AML3 cells; assay: Cell differentiation analysis, CD14 flow cytometry; conditions: 3 μM
Protocol: as §5, §1

[16] = system: OCI AML2 cells; assay: Cell proliferation and viability assay (trypan blue exclusion)
Protocol: (§6) Patient AML cell lines were plated in media and treated with the DOT1L inhibitors SYC-522, EPZ004777 or DMSO control was added at the indicated concentrations. Cells counted, washed and re-plated in fresh compound at equal densities every 3-4 days for 12 days. Cell growth and viability were followed by serial cell counts and trypan blue exclusion staining.
as §4

[17] = system: OCI AML3 cells; assay: as above
Protocol: as §6, §4

SMILES: CC(C)N(CCCNC(=O)Nc1ccc(C(C)(C)C)cc1)C[C@H]1O[C@@H](n2ccc3c(N)ncnc32)[C@H](O)[C@@H]1O [EPZ004777]
- induction of apoptosis (Annexin V binding) [1]: no induction of apoptosis
- cell cycle progression (DNA content) [2]: cell cycle arrest
- cell cycle progression (DNA content) [3]: cell cycle arrest
- oncogenic HOX gene expression [4]: reduces HOX gene expression
- expression of GAPDH (housekeeping gene) [5]: not affected
- expression of HOXA9 [5]: reduced the expression
- expression of MEIS1 [5]: reduced the expression
- expression of GAPDH (housekeeping gene) [6]: not affected
- expression of HOXB cluster genes [6]: reduced the expression
- expression of MEIS1 [6]: reduced the expression
- cellular H3K79 methylation [7]: inhibited in a dose- and time-dependent fashion
- colony-forming capacity (CFC) [8]: did not significantly impact
- induction of apoptosis (Annexin V binding) ([9]; 3 μM, time course): minimal induction of apoptosis that plateaued at 7 days of therapy
- induction of apoptosis (Annexin V binding) ([9]; increasing concentrations): dose-dependent induction of apoptosis
- induction of apoptosis (Annexin V binding) [10]: substantial induction of apoptosis
- induction of apoptosis (Annexin V binding) ([11]; 3 μM, time-dependent beginning at 5-7 days): substantial induction of apoptosis
- induction of apoptosis (Annexin V binding) ([11]; increasing concentrations): dose-dependent induction of apoptosis
- cellular H3K79 methylation [12]: inhibited in a dose- and time-dependent fashion
- cell growth [13]: no impact on the growth
- differentiation, CD14 expression [14]: increased expression of the mature monocyte marker, CD14; also recorded: increased expression of the mature monocyte marker CD14; also recorded: significant increase in CD14-positive cells
- differentiation, CD14 expression [15]: increased expression of the mature monocyte marker, CD14; also recorded: increased expression of the mature monocyte marker CD14; also recorded: significant increase in CD14-positive cells
- cell proliferation ([16]; OCI AML2 (non-R882 DNMT3A mutant), 3 μM, 14 days time course): dose- and time-dependent inhibition of proliferation; also recorded: only modestly slowed; also recorded: significant decrease in cell proliferation
- cell growth / proliferation ([16]; OCI AML2, escalating doses, 10-14 days): inhibited growth in a dose-dependent fashion
- cell proliferation ([17]; OCI AML3 (R882 DNMT3A mutant), 3 μM, 14 days time course): dose- and time-dependent inhibition of proliferation; also recorded: profoundly inhibited beginning around 7 days of treatment; also recorded: significant decrease in cell proliferation
- cell growth / proliferation ([17]; OCI AML3, escalating doses, 10-14 days): inhibited growth in a dose-dependent fashion
